Source: patent US11981686B2, “Urea compound having substituent” (DAIICHI SANKYO COMPANY, LIMITED, priority 2019, dated 2024)

Molecular target: SIRT6 enzyme (Homo sapiens, UniProt Q8N6T7)
Test: Measurement of deacetylation activity (SIRT6, AlphaLISA, H3K9(Ac) peptide)
Assay type: biochemical
Details: SIRT6 25 ng/mL, H3K9(Ac) biotin peptide 2 nM, NAD 10 μM, room temperature 30 minutes, duplicate
In short: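 SIRT6 (25 ng/mL final) in Tris-HCl pH 8.0 buffer with compound (e.g. 0.046–100 μM final) reacted with biotin-H3K9(Ac) peptide (2 nM) and NAD+ (10 μM), 30 min, room temperature. Stopped with nicotinamide plus AlphaLISA anti-unmodified H3K9/K27 beads, 60 min; EC150 (150% relative activity) from sigmoidal fit.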

Sequence of SIRT6 enzyme (Q8N6T7 whole entry, species assumed): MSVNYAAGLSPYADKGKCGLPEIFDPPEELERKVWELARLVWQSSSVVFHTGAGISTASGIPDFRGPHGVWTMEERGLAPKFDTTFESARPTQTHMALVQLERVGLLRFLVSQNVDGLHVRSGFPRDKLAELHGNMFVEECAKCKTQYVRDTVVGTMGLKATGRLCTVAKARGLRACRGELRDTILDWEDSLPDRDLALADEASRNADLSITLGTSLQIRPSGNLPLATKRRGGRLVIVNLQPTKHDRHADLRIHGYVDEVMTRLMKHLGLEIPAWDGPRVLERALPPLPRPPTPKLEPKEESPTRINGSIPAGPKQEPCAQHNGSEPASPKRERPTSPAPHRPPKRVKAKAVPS

For `CNC(=O)Nc1nc2c(s1)[C@@H]1COC[C@H](C2)N1c1nnc(-c2cccc(OC(C)C)c2)o1` [Example 122, N-methyl-N′-[(4S,8S)-10-(5-{3-[(propan-2-yl)oxy]phenyl}-1,3,4-oxadiazol-2-yl)-4,7,8,9-tetrahydro-5H-4,8-epiminooxocino[5,4-d][1,3]thiazol-2-yl]urea], the “EC150 (the concentration of the compound showing a relative enzyme activity of 150%)” value was 1.5 μm.
`CNC(=O)Nc1nc2c(s1)C1CN(C(=O)OC)CC(C2)N1c1nnc(-c2cccc(C(=O)C3CC3)c2)o1` (centres unmarked) [Example 123, Methyl 10-{5-[3-(cyclopropanecarbonyl)phenyl]-1,3,4-oxadiazol-2-yl}-2-[(methylcarbamoyl)amino]-4,7,8,9-tetrahydro-4,8-epimino[1,3]thiazolo[5,4-d]azocine-6(5H)-carboxylate] was tested, and the “EC150 (the concentration of the compound showing a relative enzyme activity of 150%)” value was 0.66 μm.
For `C[C@H](CO)NC(=O)Nc1nc2c(s1)C1COCC(C2)N1c1nc(-c2cccc(C(F)F)c2)no1` (stereo partly drawn) [Example 124, N-(10-{3-[3-(difluoromethyl)phenyl]-1,2,4-oxadiazol-5-yl}-4,7,8,9-tetrahydro-5H-4,8-epiminooxocino[5,4-d][1,3]thiazol-2-yl)-N′-[(2R)-1-hydroxypropan-2-yl]urea], the “EC150 (the concentration of the compound showing a relative enzyme activity of 150%)” value was 0.39 μm.
In the case of `CNC(=O)Nc1nc2c(s1)[C@H]1CN(C(=O)C(C)C)C[C@@H](C2)N1c1nc(-c2ccc(F)cc2)no1` [Example 125, N-[(4R,8R)-10-[3-(4-fluorophenyl)-1,2,4-oxadiazol-5-yl]-6-(2-methylpropanoyl)-4,5,6,7,8,9-hexahydro-4,8-epimino[1,3]thiazolo[5,4-d]azocin-2-yl]-N′-methylurea], the “EC150 (the concentration of the compound showing a relative enzyme activity of 150%)” value is reported as 2.4 μm.
`CNC(=O)Nc1nc2c(s1)C1CN(C(C)=O)CC(C2)N1c1ncc(-c2cccc(OC)n2)o1` (centres unmarked) [Example 126, N-{6-acetyl-10-[5-(6-methoxypyridin-2-yl)-1,3-oxazol-2-yl]-4,5,6,7,8,9-hexahydro-4,8-epimino[1,3]thiazolo[5,4-d]azocin-2-yl}-N′-methylurea] was tested, and the “EC150 (the concentration of the compound showing a relative enzyme activity of 150%)” value was 1 μm.
With `CNC(=O)Nc1nc2c(s1)[C@H]1CN(CCO)C[C@@H](C2)N1c1nc(-c2ccc(F)cc2)no1` [Example 127, N-[(4R,8R)-10-[3-(4-fluorophenyl)-1,2,4-oxadiazol-5-yl]-6-(2-hydroxyethyl)-4,5,6,7,8,9-hexahydro-4,8-epimino[1,3]thiazolo[5,4-d]azocin-2-yl]-N′-methylurea] the “EC150 (the concentration of the compound showing a relative enzyme activity of 150%)” value was 2.1 μm.
For `CNC(=O)Nc1nc2c(s1)C1CN(C(C)=O)CC(C2)N1c1ncc(-c2cccc(OC(F)F)n2)o1` (centres unmarked) [Example 128, N-(6-acetyl-10-{5-[6-(difluoromethoxy)pyridin-2-yl]-1,3-oxazol-2-yl}-4,5,6,7,8,9-hexahydro-4,8-epimino[1,3]thiazolo[5,4-d]azocin-2-yl)-N′-methylurea], the “EC150 (the concentration of the compound showing a relative enzyme activity of 150%)” value was 0.43 μm.
In the case of `CNC(=O)Nc1nc2c(s1)C1CN(C(C)=O)CC(C2)N1c1ncc(-c2cccc(OC)n2)o1` (centres unmarked) [Example 129, N-{6-acetyl-10-[5-(6-methoxypyridin-2-yl)-1,3-oxazol-2-yl]-4,5,6,7,8,9-hexahydro-4,8-epimino[1,3]thiazolo[5,4-d]azocin-2-yl}-N′-methylurea], the “EC150 (the concentration of the compound showing a relative enzyme activity of 150%)” value is reported as 0.38 μm.
For `CNC(=O)Nc1nc2c(s1)C1CN(C(C)=O)CC(C2)N1c1nc2cc(F)ccc2o1` (centres unmarked) [Example 130, N-[6-acetyl-10-(5-fluoro-1,3-benzoxazol-2-yl)-4,5,6,7,8,9-hexahydro-4,8-epimino[1,3]thiazolo[5,4-d]azocin-2-yl]-N′-methylurea], the “EC150 (the concentration of the compound showing a relative enzyme activity of 150%)” value was 3.7 μm.
For `CNC(=O)Nc1nc2c(s1)C1CN(C(=O)OC)CC(C2)N1c1nc(C2CCC(F)(F)C2)no1` (centres unmarked) [Example 131, Methyl 10-[3-(3,3-difluorocyclopentyl)-1,2,4-oxadiazol-5-yl]-2-[(methylcarbamoyl)amino]-4,7,8,9-tetrahydro-4,8-epimino[1,3]thiazolo[5,4-d]azocin-6(5H)-carboxylate], the “EC150 (the concentration of the compound showing a relative enzyme activity of 150%)” value was 1.4 μm.
In the case of `CNC(=O)Nc1nc2c(s1)C1CN(C(=O)OC)CC(C2)N1c1nc(C2CCC(F)(F)CC2)no1` (centres unmarked) [Example 132, Methyl 10-[3-(4,4-difluorocyclohexyl)-1,2,4-oxadiazol-5-yl]-2-[(methylcarbamoyl)amino]-4,7,8,9-tetrahydro-4,8-epimino[1,3]thiazolo[5,4-d]azocine-6(5H)-carboxylate], the “EC150 (the concentration of the compound showing a relative enzyme activity of 150%)” value is reported as 0.39 μm.
For `CNC(=O)Nc1nc2c(s1)C1CN(C(=O)OC)CC(C2)N1c1nc(C23CCC(F)(CC2)C3)no1` (centres unmarked) [Example 133, Methyl 10-[3-(4-fluorobicyclo[2.2.1]heptan-1-yl)-1,2,4-oxadiazol-5-yl]-2-[(methylcarbamoyl)amino]-4,7,8,9-tetrahydro-4,8-epimino[1,3]thiazolo[5,4-d]azocin-6(5H)-carboxylate], the “EC150 (the concentration of the compound showing a relative enzyme activity of 150%)” value was 1.4 μm.
For `CCOC(=O)N1CC2Cc3nc(NC(=O)NC)sc3C(C1)N2c1nc(C2(C(F)(F)F)CC2)no1` (centres unmarked) [Example 134, Ethyl 2-[(methylcarbamoyl)amino]-10-{3-[1-(trifluoromethyl)cyclopropyl]-1,2,4-oxadiazol-5-yl}-4,7,8,9-tetrahydro-4,8-epimino[1,3]thiazolo[5,4-d]azocine-6(5H)-carboxylate], the “EC150 (the concentration of the compound showing a relative enzyme activity of 150%)” value was 3.5 μm.
With `CNC(=O)Nc1nc2c(s1)C1CN(C(=O)OC)CC(C2)N1c1nc(C23CC(C(F)F)(C2)C3)no1` (centres unmarked) [Example 135, Methyl 10-{3-[3-(difluoromethyl)bicyclo[1.1.1]pentan-1-yl]-1,2,4-oxadiazol-5-yl}-2-[(methylcarbamoyl)amino]-4,7,8,9-tetrahydro-4,8-epimino[1,3]thiazolo[5,4-d]azocine-6(5H)-carboxylate] the “EC150 (the concentration of the compound showing a relative enzyme activity of 150%)” value was 2.1 μm.
`CCNC(=O)Nc1nc2c(s1)C1CN(C(C)=O)CC(C2)N1c1nc(-c2ccc(F)cc2)no1` (centres unmarked) [Example 136, N-{6-acetyl-10-[3-(4-fluorophenyl)-1,2,4-oxadiazol-5-yl]-4,5,6,7,8,9-hexahydro-4,8-epimino[1,3]thiazolo[5,4-d]azocin-2-yl}-N′-ethylurea] was tested, and the “EC150 (the concentration of the compound showing a relative enzyme activity of 150%)” value was 0.34 μm.
For `CC(=O)N1CC2Cc3nc(NC(=O)NC(C)C)sc3C(C1)N2c1nc(-c2ccc(F)cc2)no1` (centres unmarked) [Example 137, N-{6-acetyl-10-[3-(4-fluorophenyl)-1,2,4-oxadiazol-5-yl]-4,5,6,7,8,9-hexahydro-4,8-epimino[1,3]thiazolo[5,4-d]azocin-2-yl}-N′-propan-2-ylurea], the “EC150 (the concentration of the compound showing a relative enzyme activity of 150%)” value was 0.36 μm.
For `CNC(=O)Nc1nc2c(s1)C1CN(C(C)=O)CC(C2)N1c1nc(-c2cccc(F)c2)no1` (centres unmarked) [Example 138, N-{6-acetyl-10-[3-(3-fluorophenyl)-1,2,4-oxadiazol-5-yl]-4,5,6,7,8,9-hexahydro-4,8-epimino[1,3]thiazolo[5,4-d]azocin-2-yl}-N′-methylurea], the “EC150 (the concentration of the compound showing a relative enzyme activity of 150%)” value was 0.46 μm.
In the case of `CNC(=O)Nc1nc2c(s1)C1CN(C(C)=O)CC(C2)N1c1ncc(-c2cccc(Cl)c2)o1` (centres unmarked) [Example 139, N-{6-acetyl-10-[5-(3-chlorophenyl)-1,3-oxazol-2-yl]-4,5,6,7,8,9-hexahydro-4,8-epimino[1,3]thiazolo[5,4-d]azocin-2-yl}-N′-methylurea], the “EC150 (the concentration of the compound showing a relative enzyme activity of 150%)” value is reported as 0.36 μm.
With `CC(=O)N1CC2Cc3nc(NC(=O)N[C@@H]4CCOC4)sc3C(C1)N2c1nc(-c2ccc(F)cc2)no1` (stereo partly drawn) [Example 140, N-{6-acetyl-10-[3-(4-fluorophenyl)-1,2,4-oxadiazol-5-yl]-4,5,6,7,8,9-hexahydro-4,8-epimino[1,3]thiazolo[5,4-d]azocin-2-yl}-N′-[(3R)-oxolan-3-yl]urea] the “EC150 (the concentration of the compound showing a relative enzyme activity of 150%)” value was 0.16 μm.
For `CNC(=O)Nc1nc2c(s1)C1CN(C(=O)OC)CC(C2)N1c1nc2cc(OC)ccc2o1` (centres unmarked) [Example 141, Methyl 10-(5-methoxy-1,3-benzoxazol-2-yl)-2-[(methylcarbamoyl)amino]-4,7,8,9-tetrahydro-4,8-epimino[1,3]thiazolo[5,4-d]azocine-6(5H)-carboxylate], the “EC150 (the concentration of the compound showing a relative enzyme activity of 150%)” value was 0.58 μm.
In the case of `CNC(=O)Nc1nc2c(s1)C1CN(C(=O)OC)CC(C2)N1c1nc(-c2ccc(F)cn2)no1` (centres unmarked) [Example 142, Methyl 10-[3-(5-fluoropyridin-2-yl)-1,2,4-oxadiazol-5-yl]-2-[(methylcarbamoyl)amino]-4,7,8,9-tetrahydro-4,8-epimino[1,3]thiazolo[5,4-d]azocine-6(5H)-carboxylate], the “EC150 (the concentration of the compound showing a relative enzyme activity of 150%)” value is reported as 3.3 μm.
In the case of `CC(C)OC(=O)N1CC2Cc3nc(NC(=O)NC4CCOCC4)sc3C(C1)N2c1nc(-c2ccc(F)cc2)no1` (centres unmarked) [Example 143, Propan-2-yl-10-[3-(4-fluorophenyl)-1,2,4-oxadiazol-5-yl]-2-{[(oxan-4-yl)carbamoyl]amino}-4,7,8,9-tetrahydro-4,8-epimino[1,3]thiazolo[5,4-d]azocine-6(5H)-carboxylate], the “EC150 (the concentration of the compound showing a relative enzyme activity of 150%)” value is reported as 0.62 μm.
With `CC(C)(O)CNC(=O)Nc1nc2c(s1)[C@@H]1COC[C@H](C2)N1c1nc2cc(C(F)(F)F)ccc2o1` [Example 144, N-(2-hydroxy-2-methylpropyl)-N′-{(4S,8S)-10-[5-(trifluoromethyl)-1,3-benzoxazol-2-yl]-4,7,8,9-tetrahydro-5H-4,8-epiminooxocino[5,4-d][1,3]thiazol-2-yl}urea] the “EC150 (the concentration of the compound showing a relative enzyme activity of 150%)” value was 0.61 μm.
